From US9303020B2, “Compounds for the treatment of hepatitis C” (Bristol-Myers Squibb Company, priority 2012, dated 2016)

Key:
[1] = target: T1, NS5B protein of HCV, genotype 1b (Hepatitis C virus genotype 1b, UniProt Q9WMX2); experiment: HCV NS5B RdRp enzyme assay; assay type: biochemical; details: 7 nM NS5B enzyme, 4 hours at 30° C.
T1 construct: The protein was expressed with an 18 amino acid C-terminal truncation to enhance the solubility; made in house; host or cells: E. coli BL21(DE3)
Description: The cDNA encoding the NS5B protein of HCV, genotype 1b, was cloned into the pET21a expression vector. The protein was expressed with an 18 amino acid C-terminal truncation to enhance the solubility. The E. coli competent cell line BL21(DE3) was used for expression of the protein. Cultures were grown at 37° C. for ˜4 hours until the cultures reached an optical density of 2.0 at 600 nm. The cultures were cooled to 20° C. and induced with 1 mM IPTG. Fresh ampicillin was added to a final concentration of 50 μg/mL and the cells were grown overnight at 20° C.
Cell pellets (3 L) were lysed for purification to yield 15-24 mgs of purified NS5B. […]
Reactions were allowed to proceed for 4 hours at 30° C. and terminated by the addition of 50 mM EDTA (10 μL). After incubating for at least 15 minutes, plates were read on an Amersham LEADseeker multimodality imaging system.
IC50 values for compounds were determined using ten different [I]. IC50 values were calculated from the inhibition using the four-parameter logistic formula y=A+((B−A)/(1+((C/x)^D))), where A and B denote minimal and maximal % inhibition, respectively, C is the IC50, D is hill slope and x represents compound concentration.

[2] = test system: genotype 1b HCV replicon in Huh-7 cells; experiment: HCV replicon luciferase assay; assay type: cell-based, HCV genotype 1b (human hepatocyte derived cell line Huh-7); details: Hepatitis C virus, Huh-7, 72 h, Renilla luciferase, 3 days incubation
Description: The cell lines used to evaluate compounds consist of a human hepatocyte derived cell line (Huh-7) that constitutively expresses a genotype 1b HCV replicon containing a Renilla luciferase reporter gene. These cells were maintained in Dulbecco's modified Eagle medium (DMEM) containing 10% FBS, 100 U/mL penicillin/streptomycin and 1.0 mg/mL G418.
To evaluate compound efficacy, titrated compounds were transferred to sterile 384-well tissue culture treated plates, and the plates were seeded with HCV replicon cells (50 μL at a density of 2.4×10^3 cells/well) in DMEM containing 4% FBS (final DMSO concentration at 0.5%). After 3 days incubation at 37° C., cells were analyzed for Renilla Luciferase activity using the EnduRen substrate (Promega cat #E6485) according to the manufacturer's directions. Briefly, the EnduRen substrate was diluted in DMEM and then added to the plates to a final concentration of 7.5 μM. The plates were incubated for at least 1 h at 37° C. then read on a Viewlux Imager (PerkinElmer) using a luminescence program. The 50% effective concentration (EC50) was calculated using the four-parameter logistic formula noted above.

[3] = test system: HCV; details: extended dosing of the combination regimens with interferon and ribavirin; cited from earlier work

T1 sequence (Q9WMX2 2420-2992): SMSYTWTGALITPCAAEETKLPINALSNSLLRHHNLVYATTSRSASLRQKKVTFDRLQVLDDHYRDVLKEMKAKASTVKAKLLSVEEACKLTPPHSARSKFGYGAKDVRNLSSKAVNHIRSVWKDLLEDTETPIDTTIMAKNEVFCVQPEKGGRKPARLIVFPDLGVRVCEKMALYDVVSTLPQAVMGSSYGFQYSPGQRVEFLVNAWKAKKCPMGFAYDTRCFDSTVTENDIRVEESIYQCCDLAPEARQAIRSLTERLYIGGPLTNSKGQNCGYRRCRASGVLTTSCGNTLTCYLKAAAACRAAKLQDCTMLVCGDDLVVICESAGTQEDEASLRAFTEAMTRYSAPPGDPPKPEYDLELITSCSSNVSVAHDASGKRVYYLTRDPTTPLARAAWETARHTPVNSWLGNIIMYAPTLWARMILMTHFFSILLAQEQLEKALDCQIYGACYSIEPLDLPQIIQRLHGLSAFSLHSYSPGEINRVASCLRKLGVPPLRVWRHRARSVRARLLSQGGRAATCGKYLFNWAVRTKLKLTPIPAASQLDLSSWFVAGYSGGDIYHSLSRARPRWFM

Row | SMILES | IC50 [1] | EC50 [2] | toxicity during extended dosing [3]
1 | COc1cc(C)c(-c2ccc3oc(-c4ccc(F)cc4)c(-c4ncc[nH]4)c3c2F)cc1C(=O)NC1(c2ncccn2)CC1 [Example 1, 5-(4-fluoro-2-(4-fluorophenyl)-3-(1H-imidazol-2-yl)benzofuran-5-yl)-2-methoxy-4-methyl-N-(1-(pyrimidin-2-yl)cyclopropyl)benzamide] | 30 nM | 30 nM | 
2 | CCNc1cc2oc(-c3ccc(F)cc3)c(-c3ncc[nH]3)c2cc1-c1ccc(OC)c(C(=O)NC2(c3ncccn3)CC2)c1 [Example 2, 5-(6-(ethylamino)-2-(4-fluorophenyl)-3-(1H-imidazol-2-yl)benzofuran-5-yl)-2-methoxy-N-(1-(pyrimidin-2-yl)cyclopropyl)benzamide] |  | 7.2 nM | 
3 | CCN(c1cc2oc(-c3ccc(F)cc3)c(-c3ncc[nH]3)c2cc1-c1ccc(OC)c(C(=O)NC2(c3ncccn3)CC2)c1)S(C)(=O)=O [Example 3, 5-(6-(N-ethylmethylsulfonamido)-2-(4-fluorophenyl)-3-(1H-imidazol-2-yl)benzofuran-5-yl)-2-methoxy-N-(1-(pyrimidin-2-yl)cyclopropyl)benzamide] |  | 9 nM | 
4 | CNC(=O)c1c(-c2ccc(F)cc2)oc2cc(N(CCO)S(C)(=O)=O)c(C3CC3)cc12 [HCV-796] |  |  | hepatic toxicity
